The values that follow come from ChEMBL document CHEMBL1133263, “A simple polar deacetylated caloporoside derivative is a positive modulator of the GABA(A) chloride channel complex in cortical mammalian neurones” (Bioorg Med Chem Lett, 2000).

The species named for this assay is Rattus norvegicus. In words: Concentration required reduce reversibly the incidence of both spontaneous excitatory post-synaptic currents and inhibitory post-synaptic currents. It is filed as functional.

`CCCCCCCCO[C@H]1O[C@@H](CO)[C@@H](O)[C@H](O)[C@H]1O` yielded a Concentration of 100 µM.
